This is an account of results in paper PMC5584254, “Identification of novel small molecule Beclin 1 mimetics activating autophagy” (Oncotarget, 2017).

The target in data set [1] is Bcl-2 protein (SUMO-Bcl-2) (Homo sapiens, UniProt P10415). Nature of the data set: Surface plasmon resonance assay, immobilized Bcl-2. It is filed as binding. As to the method: (§1) The surface plasmon resonance experiments were performed using a Biacore 3000 (GE Healthcare Pittsburgh, PA) equipped with a research-grade CM5 sensor chip. The ligand (Bcl-xL) was immobilized using amine-coupling chemistry. The surfaces of flow cells on a Biacore sensor chip CM5 were activated for 7 min with a 1:1 mixture of 0.1 M NHS (N-hydroxysuccinimide) and 0.1 M EDC (3-(N,N-dimethylamino) propyl-N-ethylcarbodiimide) at a flow rate of 5 μL/min. The ligand (Bcl-xL) at a concentration of 180 μg/mL in 10 mM sodium acetate, pH 4.5, was immobilized at a density of about 10000 RU on flow cell 2; the ligand (SUMO-Bcl-2, 37.5 kDa, > 90% pure based on SDS–PAGE) at a concentration of 44 μg/ml in 10 mM sodium acetate, pH 4.5, was immobilized at a density of 10000 RU on flow cell 3; flow cell 1 was left blank to serve as a reference surface. All the surfaces were blocked with a 7 min injection of 1 M ethanolamine, pH 8.0.
Sequence of Bcl-2 protein (SUMO-Bcl-2) (P10415 1-211 limits assumed): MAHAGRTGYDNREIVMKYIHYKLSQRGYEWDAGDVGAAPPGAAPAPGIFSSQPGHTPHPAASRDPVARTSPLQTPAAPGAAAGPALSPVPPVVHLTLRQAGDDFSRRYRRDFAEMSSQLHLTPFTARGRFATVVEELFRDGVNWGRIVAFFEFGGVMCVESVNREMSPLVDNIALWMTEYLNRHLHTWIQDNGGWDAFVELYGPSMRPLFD
(§2) For kinetic analysis, a concentration series of analyte were injected over the flow cells at a flow rate of 60 μL/min at 20 °C. The complex was allowed to associate and dissociate for 120 and 180 s, respectively. For binding studies, analyte (or test compound) was injected over the two flow cells in duplicate at indicated concentration at a flow rate of 60 μL/min at 20 °C. The running buffer consisted of 20 mM HEPES, 150 mM NaCl, 3 mM EDTA, 1 mM DTT, 0.05% P20, 5% DMSO, pH 7.4. The complex was allowed to associate and dissociate for 120 and 180 s, respectively. The buffer samples containing a range of 4–6% DMSO were injected at the beginning, used for solvent correction. The surfaces were regenerated between binding cycles with a 5 s injection of 5 mM NaOH for compounds and 10 mM Glycine pH 2.5 for 20-mer.
All measurements were taken with flow cell 1 as a reference (i.e. sensorgram depicts “2–1 correction”) and corrected for DMSO bulk differences via the calibration curves. […] The equilibrium dissociation constant (KD) was determined by Kd/Ka.

A further data set relates to PC-3a. Nature of the data set: MTT-based cytotoxicity assay, PC-3a. Conditions: Homo sapiens, averages of at least two independent experiments, read-out: Cytotoxicity in different cell lines (IC50, μM) PC-3a. The source says:
(§3) Human prostate cancer cell lines PC-3 and DU145, were purchased from American Type Culture Collection (ATCC) and used within 50 passages. PC-3a is a derivative of PC-3 that is resistant to chemo/radiotherapy, established in our lab and confirmed by genotyping. All cells were maintained in DMEM (Mediatech, Manassas, VA) supplemented with 10% fetal bovine serum (FBS) (Sigma-Aldrich, St. Louis, MO), 1% Glutamine (Mediatech, Manassas, VA), 1% antibiotics (Mediatech, Manassas, VA). Compounds for primary FP-based HTS screening were from Prestwick, Microsource, University of Kansas Center of Excellence in Chemical Methodologies & Library Development (KU CMLD, Lawrence, KS), and Chembridge libraries. Compounds for MTT and SPR validation experiment were purchased from Microsource (Gaylordsville, CT) and Hit2lead Company (San Diego, CA). Acridine analogues, compound 1–6, were from our in-house library (provided by Specialized Chemistry Center, University of Kansas, Lawrence, KS); compound 7–17 were synthesized as described in supplementary information. (–)-Gossypol was isolated from racemic gossypol as we previously described. ABT-263 and DMSO were purchased from Sigma. MTT-based cytotoxicity assay and western blot analysis was carried out according to our previous publications. The primary antibodies used were LC3B (#2775) (Cell signaling Technology, Danvers, MA) and β-actin (A5441) (Sigma).

The subject of data set [2] is DU145, PC-3a and PC-3 prostate cancer cell lines. Nature of the data set: MTT-based cytotoxicity assay, all three prostate cancer cell lines. Conditions: for IC50: Homo sapiens, DU-145, MTT, DU145, PC-3a and PC-3, read-out: cytotoxicity IC50, stated for all three cell lines together. Details: species or system Human.
Text: We also tested the cytotoxicity of the 17 compounds in human prostate cancer cell lines by MTT assay (Table 1).
as §3, with “PC-3a is a derivative of PC-3 that is resistant to chemo/radiotherapy, established in our lab and confirmed by genotyping.” left out, “Acridine analogues, compound 1–6, were from our in-house library (provided by Specialized Chemistry Center, University of Kansas, Lawrence, KS); compound 7–17 were synthesized as described in supplementary information.” left out

In another data set the test system is DU145. Nature of the data set: MTT-based cytotoxicity assay, DU145. The settings on record: Homo sapiens, DU-145, averages of at least two independent experiments, read-out: Cytotoxicity in different cell lines (IC50, μM) DU145.
Text: as §3

Data set [3] deals with PC-3 and PC-3a prostate cancer cells. Briefly: Western blot of autophagy markers (LC3 conversion, P62). It is filed as cell-based, Human. How it is done: Figure 5 Acridine compounds induce autophagy in prostate cancer cells (A) LC3-II conversion in western blot analysis indicated the activity of autophagy. Cells were treated with DMSO or compounds for 24 h, and then lysed and processed for western blot analysis of LC3. (–)G and EBSS were used as positive controls. […] Yellow puncta indicate autophagosome (overlay of red and green fluorescence); red puncta indicate autolysosome (due to green fluorescence quenching at the acidic condition). Cells expressing RFP-GFP-LC3 were treated with compounds A13, A15 or A21 at indicated concentration for 24 h.
Figure 8 Acridine compounds induce autophagy in PC-3 and PC-3a cancer cells LC3-II conversion in western blot analysis indicated the activity of autophagy. Cells were treated with DMSO or compounds for 24 h, and then lysed and processed for western blot analysis of LC3. (–)G and EBSS were used as positive controls.
as §3

Another data set relates to PC-3. Briefly: MTT-based cytotoxicity assay, PC-3. Conditions: Homo sapiens, averages of at least two independent experiments, read-out: Cytotoxicity in different cell lines (IC50, μM) PC-3.
Text: as §3

The next data set deals with T1, Bcl-xL protein (Homo sapiens, UniProt Q07817).
T1 construct: made in house
T1 sequence (Q07817 whole entry): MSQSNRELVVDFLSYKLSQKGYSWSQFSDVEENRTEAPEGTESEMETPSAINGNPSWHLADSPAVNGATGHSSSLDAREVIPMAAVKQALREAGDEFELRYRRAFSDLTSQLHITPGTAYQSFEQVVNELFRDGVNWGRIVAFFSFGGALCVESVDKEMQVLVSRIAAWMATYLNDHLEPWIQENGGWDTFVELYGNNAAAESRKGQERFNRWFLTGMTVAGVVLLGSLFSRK
Briefly: Surface plasmon resonance assay, immobilized Bcl-xL. It counts as binding. The settings on record: for binding level to Bcl-xL protein in SPR: 10 μM compound, Bcl-xL immobilized 10000 RU. How it is done: as §1, §2
All measurements were taken with flow cell 1 as a reference (i.e. sensorgram depicts “2–1 correction”) and corrected for DMSO bulk differences via the calibration curves. To obtain kinetic rate constants (Ka and Kd), corrected response data were fit to a simple 1:1 interaction model using local fit (includes correction for mass transport limitations) available within Biaevaluation 3.1 software or Scrubber2 software. The equilibrium dissociation constant (KD) was determined by Kd/Ka.

On to `CCN(CC)CCCCNc1c2ccc(Cl)cc2nc2ccc(OC)cc12` [Compound 7], for which the kon came to 3200 M⁻¹ s⁻¹ in data set [1] (SPR kinetic analysis, 1:1 model, read-out: association rate (Ka) to Bcl-2) and 29600 M⁻¹ s⁻¹ at Bcl-xL protein (SPR kinetic analysis, 1:1 model, read-out: association rate (Ka) to Bcl-xL). In addition, the koff in data set [1] (SPR kinetic analysis, 1:1 model, read-out: dissociation rate (Kd) from Bcl-2) was found to be 0.51 s⁻¹; at Bcl-xL protein (SPR kinetic analysis, 1:1 model, read-out: dissociation rate (Kd) from Bcl-xL), 0.193 s⁻¹. The equilibrium dissociation constant (Kd) in data set [1] (SPR, KD = Kd/Ka, read-out: equilibrium dissociation constant KD to immobilized Bcl-2) is 160 µM; on Bcl-xL protein (SPR, KD = Kd/Ka, read-out: equilibrium dissociation constant KD to immobilized Bcl-xL) it was 6.5 µM. Further, the IC50 in the data set with PC-3a is 0.1 ± 0.05 µM; in data set [2] it was less than 0.5 µM; in the data set with DU145 it was 0.27 ± 0.13 µM; in the data set with PC-3, 0.11 ± 0.07 µM. Further, the “fold difference in IC50 value, PC-3 and PC-3a versus DU145” value in data set [2] (higher cytotoxicity in PC-3 and PC-3a than in DU145) is 3–5 fold. Also, in data set [3], the “SQSTM1/P62 turnover” value is “degradation of P62”. Also, the “LC3-I to LC3-II conversion” value in data set [3] (24 h treatment) is listed as “triggered the conversion of LC3-I to LC3-II”. For the same compound, the “binding level to Bcl-xL protein in SPR” value on Bcl-xL protein (SPR) was “higher binding level than original hit A21”. Also, at Bcl-xL protein (from SPR KD values), the “selectivity for Bcl-xL protein over Bcl-2” value is recorded as “about 25 fold”.

In turn, `COc1ccc2nc3cc(Cl)ccc3c(N3CCN(C)CC3)c2c1` [Compound 9] returned a melting point of 135 to 138 °C. For the same compound, the half-maximal inhibitory concentration (IC50) in the data set with PC-3a amounted to 3.51 ± 1.15 µM. For the same compound, in the data set with DU145, the IC50 is 6.24 ± 1.86 µM. The IC50 with PC-3 came to 2.93 ± 1.18 µM.

`COc1ccc2nc3cc(Cl)ccc3c(-c3ccc([N+](=O)[O-])cc3)c2c1` [Compound 14] came in with a melting point of 207 to 211 °C. Besides, in the data set on PC-3a, the IC50 was more than 100 µM. Also, in data set [2], the IC50 is more than 100 µM. Besides, the IC50 in the data set with DU145 was more than 100 µM. The concentration for half-maximal inhibition (IC50) in the data set with PC-3 was more than 100 µM. Besides, the “binding level to Bcl-xL protein in SPR” value on Bcl-xL protein (SPR) is listed as “almost no binding”.
